Results on 43 compounds are retold here after ChEMBL document CHEMBL1938339, “Tripeptidic BACE1 inhibitors devised by in-silico conformational structure-based design” (Bioorg Med Chem Lett, 2012).

Broadly, the inhibition is the share of the control response that was lost under treatment.

Beta-secretase 1 (Homo sapiens), sequence (P56817 whole entry): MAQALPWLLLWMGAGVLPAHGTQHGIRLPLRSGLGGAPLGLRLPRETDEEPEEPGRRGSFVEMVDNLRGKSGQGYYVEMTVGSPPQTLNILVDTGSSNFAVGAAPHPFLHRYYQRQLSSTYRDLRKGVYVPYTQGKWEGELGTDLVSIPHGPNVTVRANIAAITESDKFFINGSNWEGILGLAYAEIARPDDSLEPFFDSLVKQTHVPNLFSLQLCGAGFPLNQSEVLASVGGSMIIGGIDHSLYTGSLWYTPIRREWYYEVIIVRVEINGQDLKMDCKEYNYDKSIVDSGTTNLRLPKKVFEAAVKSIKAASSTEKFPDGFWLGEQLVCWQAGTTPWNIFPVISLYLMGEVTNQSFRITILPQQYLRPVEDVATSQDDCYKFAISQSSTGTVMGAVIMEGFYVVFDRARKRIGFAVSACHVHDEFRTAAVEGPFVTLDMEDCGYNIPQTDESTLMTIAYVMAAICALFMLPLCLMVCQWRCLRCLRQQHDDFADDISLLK

The test has as its target Beta-secretase 1 (Homo sapiens) (UniProt P56817). Nature of the test: Inhibition of human recombinant BACE1 at 2 uM by FRET assay.
With `CC(C)C[C@H](NC(=O)[C@@H](NC(=O)[C@@H](N)CNC(=O)c1[nH]c(=O)[nH]c(=O)c1F)C(C)C)C(=O)N1CCCCC1`, the inhibition is 91%. Turning to `CC(C)[C@H](NC(=O)[C@@H](N)CNC(=O)c1cc(O)ccc1O)C(=O)N[C@@H](CC1CCCCC1)C(=O)NC(C)(C)Cc1ccc(Br)cc1`, the inhibition worked out at 81%. Under `CC(C)C[C@H](NC(=O)[C@@H](NC(=O)[C@@H](N)CNC(=O)c1[nH]c(=O)[nH]c(=O)c1F)C(C)C)C(=O)NC(C)(C)Cc1ccc(Br)cc1` stands 85%. `CC(C)[C@H](NC(=O)[C@@H](N)CNC(=O)c1[nH]c(=O)[nH]c(=O)c1F)C(=O)N[C@@H](CC1CCCCC1)C(=O)NC(C)(C)Cc1ccc(I)cc1I`: the inhibition came out at 96%.

Take `CC(C)C[C@H](NC(=O)[C@@H](NC(=O)[C@@H](N)CNC(=O)c1cc(O)ccc1O)C(C)C)C(=O)NC(C)(C)Cc1cc(F)cc(F)c1`: the inhibition amounted to 59%. As for `CC(C)C[C@H](NC(=O)[C@@H](NC(=O)[C@@H](N)CNC(=O)c1[nH]c(=O)[nH]c(=O)c1F)C(C)C)C(=O)NC(C)(C)Cc1ccc([N+](=O)[O-])cc1`, the inhibition was 27%. As to `Cc1ccc(CC(C)(C)NC(=O)[C@H](CC(C)C)NC(=O)[C@@H](NC(=O)[C@@H](N)CNC(=O)c2cc(O)ccc2O)C(C)C)cc1`, the inhibition is 51%.

Consider `CC(C)C[C@H](NC(=O)[C@@H](NC(=O)[C@@H](N)CNC(=O)c1[nH]c(=O)[nH]c(=O)c1F)C(C)C)C(=O)NC(C)(C)CC1CCCCC1`, for which the inhibition turned out to be 91%. For the compound `CC(C)[C@H](NC(=O)[C@@H](N)CNC(=O)c1[nH]c(=O)[nH]c(=O)c1F)C(=O)N[C@@H](CC1CCCCC1)C(=O)NC(C)(C)Cc1cc(F)cc(F)c1`, the inhibition is 91%. On to `COc1ccc(CC(C)(C)NC(=O)[C@H](CC2CCCCC2)NC(=O)[C@@H](NC(=O)[C@@H](N)CNC(=O)c2[nH]c(=O)[nH]c(=O)c2F)C(C)C)cc1`, for which the inhibition turned out to be 85%. `CC(C)[C@H](NC(=O)[C@@H](N)CNC(=O)c1cc(O)ccc1O)C(=O)N[C@@H](CC1CCCCC1)C(=O)NC(C)(C)Cc1ccccc1`: the inhibition was 80%. Under `CC(C)[C@H](NC(=O)[C@@H](N)CNC(=O)c1[nH]c(=O)[nH]c(=O)c1F)C(=O)N[C@@H](CC1CCCCC1)C(=O)NC(C)(C)CC1CCCCC1` stands 88%; under `COc1cccc(CC(C)(C)NC(=O)[C@H](CC2CCCCC2)NC(=O)[C@@H](NC(=O)[C@@H](N)CNC(=O)c2cc(O)ccc2O)C(C)C)c1`, 49%; under `Cc1ccccc1CC(C)(C)NC(=O)[C@H](CC1CCCCC1)NC(=O)[C@@H](NC(=O)[C@@H](N)CNC(=O)c1[nH]c(=O)[nH]c(=O)c1F)C(C)C`, 84%. Turning to `CC(C)C[C@H](NC(=O)[C@@H](NC(=O)[C@@H](N)CNC(=O)c1cc(O)ccc1O)C(C)C)C(=O)NC(C)(C)Cc1ccc([N+](=O)[O-])cc1`, the inhibition was 45%. As for `CC(C)[C@H](NC(=O)[C@@H](N)CNC(=O)c1nn[nH]n1)C(=O)N[C@@H](CC1CCCCC1)C(=O)NC(C)(C)Cc1ccccc1`, the inhibition came out at 76%. Under `COc1ccc(CC(C)(C)NC(=O)[C@H](CC2CCCCC2)NC(=O)[C@@H](NC(=O)[C@@H](N)CNC(=O)c2cc(O)ccc2O)C(C)C)cc1` stands 45%; under `COc1ccc(CC(C)(C)NC(=O)[C@H](CC(C)C)NC(=O)[C@@H](NC(=O)[C@@H](N)CNC(=O)c2cc(O)ccc2O)C(C)C)cc1`, 41%; under `Cc1ccccc1CC(C)(C)NC(=O)[C@H](CC(C)C)NC(=O)[C@@H](NC(=O)[C@@H](N)CNC(=O)c1[nH]c(=O)[nH]c(=O)c1F)C(C)C`, 91%.

Consider `CC(C)C[C@H](NC(=O)[C@@H](NC(=O)[C@@H](N)CNC(=O)c1[nH]c(=O)[nH]c(=O)c1F)C(C)C)C(=O)N1CCCCCCCC1`, for which the inhibition was 81%. As to `CC(C)[C@H](NC(=O)[C@@H](N)CNC(=O)c1[nH]c(=O)[nH]c(=O)c1F)C(=O)N[C@@H](CC1CCCCC1)C(=O)NC(C)(C)Cc1ccc(Br)cc1`, the inhibition stood at 92%. Under `CC(C)C[C@H](NC(=O)[C@@H](NC(=O)[C@@H](N)CNC(=O)c1[nH]c(=O)[nH]c(=O)c1F)C(C)C)C(=O)NC(C)(C)Cc1ccccc1` stands 90%. Regarding `CC(C)C[C@H](NC(=O)[C@@H](NC(=O)[C@@H](N)CNC(=O)c1[nH]c(=O)[nH]c(=O)c1F)C(C)C)C(=O)NC(C)(C)Cc1ccc(I)cc1I`, the inhibition amounted to 91%.

As to `CC(C)[C@H](NC(=O)[C@@H](N)CNC(=O)c1[nH]c(=O)[nH]c(=O)c1F)C(=O)N[C@@H](CC1CCCCC1)C(=O)NC(C)(C)Cc1ccc([N+](=O)[O-])cc1`, the inhibition stood at 89%. Take `COc1cccc(CC(C)(C)NC(=O)[C@H](CC(C)C)NC(=O)[C@@H](NC(=O)[C@@H](N)CNC(=O)c2cc(O)ccc2O)C(C)C)c1`: the inhibition was determined as 46%.

In the case of `COc1ccc(CC(C)(C)NC(=O)[C@H](CC(C)C)NC(=O)[C@@H](NC(=O)[C@@H](N)CNC(=O)c2[nH]c(=O)[nH]c(=O)c2F)C(C)C)cc1`, the inhibition worked out at 83%. As to `Cc1ccc(CC(C)(C)NC(=O)[C@H](CC2CCCCC2)NC(=O)[C@@H](NC(=O)[C@@H](N)CNC(=O)c2[nH]c(=O)[nH]c(=O)c2F)C(C)C)cc1`, the inhibition is 88%. For the compound `CC(C)C[C@H](NC(=O)[C@@H](NC(=O)[C@@H](N)CNC(=O)c1[nH]c(=O)[nH]c(=O)c1F)C(C)C)C(=O)N1CCCCCCC1`, the inhibition is 85%. Consider `Cc1ccc(CC(C)(C)NC(=O)[C@H](CC(C)C)NC(=O)[C@@H](NC(=O)[C@@H](N)CNC(=O)c2[nH]c(=O)[nH]c(=O)c2F)C(C)C)cc1`, for which the inhibition was determined as 86%. Take `COc1cccc(CC(C)(C)NC(=O)[C@H](CC(C)C)NC(=O)[C@@H](NC(=O)[C@@H](N)CNC(=O)c2[nH]c(=O)[nH]c(=O)c2F)C(C)C)c1`: the inhibition came out at 84%. In the case of `CC(C)C[C@H](NC(=O)[C@@H](NC(=O)[C@@H](N)CNC(=O)c1[nH]c(=O)[nH]c(=O)c1F)C(C)C)C(=O)NC(C)(C)Cc1cc(F)cc(F)c1`, the inhibition is 86%. Under `CC(C)[C@H](NC(=O)[C@@H](N)CNC(=O)c1[nH]c(=O)[nH]c(=O)c1F)C(=O)N[C@@H](CC1CCCCC1)C(=O)NC(C)(C)Cc1ccccc1` stands 92%; under `Cc1ccccc1CC(C)(C)NC(=O)[C@H](CC1CCCCC1)NC(=O)[C@@H](NC(=O)[C@@H](N)CNC(=O)c1cc(O)ccc1O)C(C)C`, 54%. Under `CC(C)C[C@H](NC(=O)[C@@H](NC(=O)[C@@H](N)CNC(=O)c1[nH]c(=O)[nH]c(=O)c1F)C(C)C)C(=O)N1CCCC1` stands 88%; under `CC(C)C[C@H](NC(=O)[C@@H](NC(=O)[C@@H](N)CNC(=O)c1[nH]c(=O)[nH]c(=O)c1F)C(C)C)C(=O)N1CCCCCC1`, 89%; under `CC(C)[C@H](NC(=O)[C@@H](N)CCC(=O)O)C(=O)N[C@@H](CC1CCCCC1)C(=O)NC(C)(C)Cc1ccccc1`, 16%. For `CC(C)C[C@H](NC(=O)[C@@H](NC(=O)[C@@H](N)CNC(=O)c1cc(O)ccc1O)C(C)C)C(=O)NC(C)(C)Cc1ccccc1`, the inhibition stood at 77%. For the compound `CC(C)C[C@H](NC(=O)[C@@H](NC(=O)[C@@H](N)CCC(=O)O)C(C)C)C(=O)NC(C)(C)Cc1ccccc1`, the inhibition is less than 10%. Under `CC(C)[C@H](NC(=O)[C@@H](N)CNC(=O)c1cc(O)ccc1O)C(=O)N[C@@H](CC1CCCCC1)C(=O)NC(C)(C)Cc1ccc(I)cc1I` stands 88%; under `CC(C)C[C@H](NC(=O)[C@@H](NC(=O)[C@@H](N)CNC(=O)c1cc(O)ccc1O)C(C)C)C(=O)NC(C)(C)Cc1ccc(I)cc1I`, 78%; under `CC(C)C[C@H](NC(=O)[C@@H](NC(=O)[C@@H](N)CNC(=O)c1nn[nH]n1)C(C)C)C(=O)NC(C)(C)Cc1ccccc1`, 70%. With `CC(C)[C@H](NC(=O)[C@@H](N)CNC(=O)c1cc(O)ccc1O)C(=O)N[C@@H](CC1CCCCC1)C(=O)NC(C)(C)Cc1ccc([N+](=O)[O-])cc1`, the inhibition was found to be 80%.

As for `COc1cccc(CC(C)(C)NC(=O)[C@H](CC2CCCCC2)NC(=O)[C@@H](NC(=O)[C@@H](N)CNC(=O)c2[nH]c(=O)[nH]c(=O)c2F)C(C)C)c1`, the inhibition amounted to 77%.
